From patent publication US20140024548A1, “DRUG SELECTION FOR MALIGNANT CANCER THERAPY USING ANTIBODY-BASED ARRAYS” (NESTEC S.A., priority 2010, published 2014)

Columns and labels:
[1] = in vivo; cited from earlier work
CYP450 = conditions: cited from earlier work
[2] = early Phase I evaluation; cited from earlier work
human xenograft models = conditions: dosed orally; cited from earlier work
cMET = biological target: T1, cMET (Homo sapiens, UniProt P08581); assay: CEER detection of activated cMET in HCC827 cells treated with HGF; type: cell-based; conditions: HGF stimulation, FIG. 10B
T1 construct: host or cells: HCC827
T1 sequence (P08581 25-1390): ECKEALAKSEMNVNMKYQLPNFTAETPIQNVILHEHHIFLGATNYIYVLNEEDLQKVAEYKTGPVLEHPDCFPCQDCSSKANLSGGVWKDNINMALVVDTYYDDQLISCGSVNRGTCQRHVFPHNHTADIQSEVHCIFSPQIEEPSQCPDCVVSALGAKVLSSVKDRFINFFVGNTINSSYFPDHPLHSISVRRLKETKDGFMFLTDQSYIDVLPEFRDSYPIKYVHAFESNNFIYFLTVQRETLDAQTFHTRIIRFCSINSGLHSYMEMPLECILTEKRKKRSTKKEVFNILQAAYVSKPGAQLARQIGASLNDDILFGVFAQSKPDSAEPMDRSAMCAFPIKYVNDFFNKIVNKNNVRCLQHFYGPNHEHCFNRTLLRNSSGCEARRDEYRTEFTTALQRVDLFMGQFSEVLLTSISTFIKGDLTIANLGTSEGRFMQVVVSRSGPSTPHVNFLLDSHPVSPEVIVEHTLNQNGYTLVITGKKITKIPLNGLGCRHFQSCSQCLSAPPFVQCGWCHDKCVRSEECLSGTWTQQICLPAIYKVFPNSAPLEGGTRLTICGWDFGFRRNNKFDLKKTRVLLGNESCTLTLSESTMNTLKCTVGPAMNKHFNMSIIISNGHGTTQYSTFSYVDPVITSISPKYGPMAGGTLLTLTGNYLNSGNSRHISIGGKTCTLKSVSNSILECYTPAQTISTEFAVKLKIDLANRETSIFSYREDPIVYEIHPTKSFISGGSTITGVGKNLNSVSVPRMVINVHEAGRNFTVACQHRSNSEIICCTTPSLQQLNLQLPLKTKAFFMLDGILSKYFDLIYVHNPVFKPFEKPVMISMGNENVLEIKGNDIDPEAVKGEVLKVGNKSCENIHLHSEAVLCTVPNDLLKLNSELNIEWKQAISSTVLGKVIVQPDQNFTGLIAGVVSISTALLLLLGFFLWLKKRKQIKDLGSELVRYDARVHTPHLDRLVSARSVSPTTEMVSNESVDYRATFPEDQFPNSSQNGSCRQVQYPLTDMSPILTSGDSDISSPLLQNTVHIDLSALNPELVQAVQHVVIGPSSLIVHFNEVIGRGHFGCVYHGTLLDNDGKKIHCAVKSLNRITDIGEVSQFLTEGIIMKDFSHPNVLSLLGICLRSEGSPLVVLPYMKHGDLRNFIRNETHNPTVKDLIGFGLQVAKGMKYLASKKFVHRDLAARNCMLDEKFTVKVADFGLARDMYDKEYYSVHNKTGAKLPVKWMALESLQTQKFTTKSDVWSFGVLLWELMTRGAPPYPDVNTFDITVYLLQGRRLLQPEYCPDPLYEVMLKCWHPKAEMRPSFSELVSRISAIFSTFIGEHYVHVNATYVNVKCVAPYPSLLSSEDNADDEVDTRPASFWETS
Procedure: (§1) In one particular embodiment, cells from a NSCLC cell line (e.g., HCC827 cells or other gefitinib sensitive lung adenocarcinoma cells with EGFR-activating mutations; American Type Culture Collection, Manassas, Va.) were treated with different concentrations of ligand or signaling molecule (e.g., the ligand for the cMET receptor, HGF). The levels of expression and activation of proteins associated with cancer were measured in the treated cells with high sensitivity using CEER arrays. By varying the amount of ligand exposed to the cancer cells, the expression profiles of the analyzed proteins were correlated to the amount of ligand used to stimulate the cells. Dose response curves were used to calculate EC50 values which can be used to interpret the inhibition and activation states of the analyzed proteins.
(§2) FIG. 10 illustrates the difference in protein expression in HCC827 cells following HGF stimulation. […] FIG. 10E illustrates that HGF and cMET binding interferes with HER3 activation, and HER1 and HER2 to a lesser extent (see also, FIGS. 10C and 10D).

HER1 = assay: CEER detection of activated HER1 in HCC827 cells treated with HGF; type: cell-based; conditions: HGF stimulation, judged by increased EC50
Procedure: as §1, §2

HER2 = assay: CEER detection of activated HER2 in HCC827 cells treated with HGF; type: cell-based; conditions: HGF stimulation, judged by increased EC50
Procedure: as §1, §2

HER3 = assay: CEER detection of activated HER3 in HCC827 cells treated with HGF; type: cell-based; conditions: HGF stimulation, judged by increased EC50
Procedure: as §1, §2

**Q.** For COc1cc2c(Oc3ccc(NC(=O)C4(C(=O)Nc5ccc(F)cc5)CC4)cc3F)ccnc2cc1OCCCN1CCOCC1 [GSK 1363089/XL880], which oral bioavailability [1] is on record?
**A.** good oral bioavailability

**Q.** And the “CYP450 substrate / inhibitor / inducer status” value (CYP450)?
**A.** substrate, but not an inhibitor or inducer

**Q.** Which tolerability [2] does the source give for CN(C[C@@H]1COCCO1)S(=O)(=O)Nc1ccc2ccc3ncc(-c4cnn(C)c4)cc3c(=O)c2c1 [MK-2461] here?
**A.** well tolerated

**Q.** For Cn1cc(-c2ccc3nnc(Sc4ccc5ncccc5c4)n3n2)cn1 [SGX523], which antitumor activity (human xenograft models) is on record?
**A.** potent antitumor activity

**Q.** What about the toxicity (human xenograft models) of the same compound?
**A.** no overt toxicity

**Q.** Which results are given for “HGF: hepatocyte growth factor, the ligand for the cMET receptor”?
**A.** cMET activation (cMET): activated cMET effectively; HER1 activation (HER1): decreased; HER2 activation (HER2): decreased; HER3 activation (HER3): decreased
